# Assay results taken from patent publication US20230009323A1, “COMPOUNDS AND METHODS FOR THE TREATMENT OF CRYPTOSPORIDIOSIS” (The Broad Institute, Inc., priority 2019, published 2023).
# pEC50: −log10 of the molar value. “Also recorded” adds a separate entry of the source.
# Tests used:
# [1] = HepG2 cytotoxicity; type: cell-based; details: human, HepG2 cells
# [2] = test system: C. parvum; assay: NOD SCID gamma mouse model of established cryptosporidiosis, fecal oocyst shedding by qPCR; type: in vivo, NOD SCID gamma mice
# Excerpt: FIG. 4A is a schematic of NOD SCID gamma (NSG) mouse model of established intestinal cryptosporidiosis. Intestinal C. parvum infection was established by oral gavage of ˜10^5 oocysts either 7 days (FIGS. 4B and C) or 14 days (FIG. 4D) prior to oral treatment with bicyclic azetidines, vehicle, or paromomycin (positive control). All data are the mean and SEM (n=4 mice per experimental group) of parasite shedding per mg of feces measured by qPCR with results for individual mice shown as superimposed data points. Data points for which no parasite DNA was detected are shown at the qPCR assay limit of detection (0.1 oocysts per mg feces).
# NOD scid gamma mice (NOD.Cg-Prkdcscid Il2rgtmlWjl/Szj; Jackson Laboratory, Bar Harbor, Me.) (NSG) were used to model established Cryptosporidium infection. All NSG mouse studies were performed in compliance with animal care guidelines and with approval by the University of Vermont Institutional Animal Care and Use Committee. Mice were acquired at three to four weeks of age, and acclimatized for one week prior to infection by oral gavage of ˜10^5 C. parvum Iowa isolate (Bunch Grass Farms) oocysts. They were then treated at the specified times and dosages with each compound dissolved in 0.5% hydroxypropylmethyl cellulose, 0.5% Tween 80 (v/v) plus 5% DMSO.
# This cryptosporidiosis infection model used 3-4 week old, freshly weaned, NOD SCID gamma mice orally infected with C. parvum oocysts (˜1×10^5). The infection was monitored by qPCR of feces with primers specific for C. parvum and data are shown as number of oocysts milligram^−1 of feces. Six days following infection and upon confirmation of parasite shedding by qPCR, the three compounds, negative and positive control were orally administered at 50 mg·kg^−1 (body weight) every 24 h for 4 days. (FIGS. 4A-D). […] We then performed a dose-ranging study with Compound 11 using the same immunocompromised mouse model and dosing regimens of 5, 20 and 40 mg·kg^−1 every 24 h for 4 days or 10 mg·kg^−1 every 24 h for 7 days. Mice were monitored for an additional 14 days for relapse of infection.
# [3] = test system: C. parvum mutant transgenic PheRS (mut482V); assay: microbe, parasite or virus in culture; type: cell-based, Cryptosporidium parvum
# Experimental: The in vitro drug susceptibility assay using transgenic parasites expressing Nluc was performed as described in Vinyak et al. Briefly, host intestinal epithelial adenocarcinoma (HCT-8) cells grown in 96-well plates were infected with purified transgenic Nluc-expressing oocysts (1,000 oocysts per well) and incubated with different concentrations of Compound 11 for 48 hours. Culture supernatant was discarded from the wells after 48 hours, and 200 μl of NanoGlo lysis buffer containing 1:50 of NanoGlo substrate (Promega) was added to the wells. Lysates were transferred to white 96-well plates and luminescence was measured on a Glomax luminescence reader (Promega). EC50 values were calculated in GraphPad Prism software v7.
# Oocysts from the mutant (mut482V) and wild type (wtL482) transgenic lines were purified as well as the parent strain (Bunchgrass) used to generate the transgenics. Sporozoites were excised from these oocysts and used to infect 96 well format HCT-8 cultures to perform in vitro drug susceptibility assays. Cultures were incubated for 48 hours in the presence of varying concentrations of Compound 11 and parasite growth was measured by establishing whole well luciferase activity to calculate EC50 values for each strain.
# [4] = test system: transgenic C. parvum (L482+V482 mixed or wt L482); assay: IFN-γ knockout mice infected with transgenic C. parvum, fecal luminescence; type: in vivo, C57BL/6 IFN-γ knockout mice; details: 10 mg/kg for five days (days 4-8 post-infection); day 7
# Excerpt: All mouse studies described in this section were approved by the Institutional Animal Care and Use Committee of the University of Georgia and University of Pennsylvania. Cryptosporidium parvum IOWA-II oocysts were purchased from Bunch Grass Farms, Deary, Id., USA. Oocysts were excysted and electroporated with Cas9/guide plasmid and repair DNA template using Lonza Nucleofector 4D device and previously optimized protocols described in Vinayak, S. et al. Nature 523, 477-480, doi:10.1038/nature14651 (2015) and Pawlowic, et al. Curr Protoc Microbiol 46, 20B 22 21-20B 22 32, doi:10.1002/cpmc.33 (2017), each hereby incorporated by reference in their entirety. C57BL/6 IFN-γ knockout mice (Jackson Laboratory) aged 4-6 weeks (n=5) were infected with transfected sporozoites suspended in PBS using surgery described previously or an oral gavage procedure. The oral gavage procedure involved buffering of the acidic stomach with 8% sodium bicarbonate before delivery of sporozoites.
# Fecal samples were collected from cages and luminescence measurements were performed as described in Manjunatha, U. H. et al. Nature 546, 376-380, doi:10.1038/nature22337 (2017) and Vinayak, S. et al. Nature 523, 477-480, doi:10.1038/nature14651 (2015), each hereby incorporated by reference in their entirety. […] During passaging, mice were monitored for weight loss, fur ruffling, hunched posture, and inactivity. […]
smiles,measurement,setting,value
"COc1ccc(NC(=O)N2CCCCN3[C@H](CN(C)C)[C@H](c4ccc(C#Cc5ccccc5)cc4)[C@@H]3C2)cc1 [Compound 11, (8R,9S,10S)-10-((dimethylamino)methyl)-N-(4-methoxyphenyl)-9-(4-(phenylethynyl)phenyl)-1,6-diazabicyclo[6.2.0]decane-6-carboxamide]",CC50,[1],5 µM
same,oocyst shedding at follow-up for relapse,"[2]; 10 mg/kg every 24 h for 7 days, monitored an additional 14 days",no oocyst shedding was observed
same,log reduction in oocysts·mg^−1 stool,"[2]; oral, 50 mg/kg every 24 h for 4 days",~3 log
same,reduction in oocyst shedding (oocysts per mg feces),"[2]; oral, 50 mg/kg every 24 h for 4 days, 50 mg/kg",significant reduction in oocyst shedding; also recorded: greatest reduction in oocysts
same,"fold shift in EC50, mutant transgenic vs wild type transgenic",[3],23 fold
same,pEC50,"[3]; Cryptosporidium parvum, HCT-8, 48 h, read-out: EC50, mutant transgenic",5.98
same,fecal luciferase activity (parasite shedding),[4],decrease in luciferase activity
